Read-outs that look alike come from different tables or passages of the source.
Target: T1, F508del (Homo sapiens, UniProt P13569, DEL508-508)
T1 construct: expressed in transfected cells
Assay: Protocol 2: FRET membrane potential optical assay (VIPR), identification of correction compounds
Type: cell-based
In short: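 Corrector readout: membrane-potential FRET (CC2-DMPE donor, DiSBAC2(3) acceptor) on VIPR II after Cl⁻-free gluconate bath with 10 μM forskolin and 20 μM genistein. Before this, F508del-expressing NIH3T3 cells were exposed to test compound for 16 h at 37 °C without serum; 27 °C incubation served as temperature-correction control.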

[1] = Table 3, compounds of Table 1 as modulators of CFTR activity, protocol not stated
[2] = F508del CFTR modulator activity, compounds of Table 1, read-out: EC30

T1 sequence (P13569 with tags, fused parts or gaps DEL508-508): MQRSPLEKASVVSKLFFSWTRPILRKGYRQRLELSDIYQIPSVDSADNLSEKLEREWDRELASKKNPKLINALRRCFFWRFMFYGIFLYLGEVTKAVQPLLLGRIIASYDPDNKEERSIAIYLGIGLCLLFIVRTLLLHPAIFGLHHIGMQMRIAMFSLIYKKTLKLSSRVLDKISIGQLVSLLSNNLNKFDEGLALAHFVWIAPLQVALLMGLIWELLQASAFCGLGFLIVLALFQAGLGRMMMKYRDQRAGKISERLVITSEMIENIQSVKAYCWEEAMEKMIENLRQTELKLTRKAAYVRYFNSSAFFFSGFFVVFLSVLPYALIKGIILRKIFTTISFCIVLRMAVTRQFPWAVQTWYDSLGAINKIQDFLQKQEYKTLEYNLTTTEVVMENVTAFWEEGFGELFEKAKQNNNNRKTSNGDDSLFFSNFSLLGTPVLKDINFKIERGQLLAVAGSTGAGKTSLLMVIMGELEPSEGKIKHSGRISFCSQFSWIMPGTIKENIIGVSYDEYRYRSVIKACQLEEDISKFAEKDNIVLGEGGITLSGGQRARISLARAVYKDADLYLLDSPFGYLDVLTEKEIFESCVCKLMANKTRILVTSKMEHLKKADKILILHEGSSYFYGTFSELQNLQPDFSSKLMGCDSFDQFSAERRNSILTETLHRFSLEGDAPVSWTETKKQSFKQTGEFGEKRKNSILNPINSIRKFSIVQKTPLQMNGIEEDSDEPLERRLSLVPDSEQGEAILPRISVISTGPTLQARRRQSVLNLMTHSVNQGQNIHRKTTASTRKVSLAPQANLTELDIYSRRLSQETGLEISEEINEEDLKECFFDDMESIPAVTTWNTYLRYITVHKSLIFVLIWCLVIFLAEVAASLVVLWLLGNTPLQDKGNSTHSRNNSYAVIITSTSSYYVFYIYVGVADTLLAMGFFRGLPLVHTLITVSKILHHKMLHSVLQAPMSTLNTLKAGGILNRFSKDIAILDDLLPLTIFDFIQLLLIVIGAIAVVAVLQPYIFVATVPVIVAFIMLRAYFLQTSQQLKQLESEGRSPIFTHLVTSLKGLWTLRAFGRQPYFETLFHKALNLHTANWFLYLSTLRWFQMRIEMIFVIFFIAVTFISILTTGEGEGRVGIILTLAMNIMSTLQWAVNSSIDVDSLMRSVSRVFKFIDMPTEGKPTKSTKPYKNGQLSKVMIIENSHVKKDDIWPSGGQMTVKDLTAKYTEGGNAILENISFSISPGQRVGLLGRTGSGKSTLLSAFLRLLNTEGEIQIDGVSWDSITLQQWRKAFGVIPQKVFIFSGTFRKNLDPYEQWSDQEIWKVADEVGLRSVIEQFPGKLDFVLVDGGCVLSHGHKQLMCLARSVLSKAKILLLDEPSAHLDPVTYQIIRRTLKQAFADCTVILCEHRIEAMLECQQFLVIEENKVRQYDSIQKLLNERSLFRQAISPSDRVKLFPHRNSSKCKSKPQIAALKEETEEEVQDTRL

EC30 [1]	EC30 [2]	SMILES
+++ (“+++” means <3 uM)		COc1cc(S(=O)(=O)NC(=O)c2ccc(C(C)(C)C)nc2Oc2c(C)cc(C)cc2C)ccn1 [Compound 217, 6-tert-butyl-N-[(2-methoxy-4-pyridyl)sulfonyl]-2-(2,4,6-trimethylphenoxy)pyridine-3-carboxamide]
	< 3000 nM	CC1CN(c2ncccc2C(=O)NS(=O)(=O)c2cccc(N3CCCCC3C)n2)C(C)(C)C1 (stereo not drawn) [Compound 2747]
+++ (“+++” means <3 uM)		Cc1cc(C)c(Oc2nc3c(cc2C(=O)NS(=O)(=O)c2cccc(N)n2)CCCC3(C)C)c(C)c1 [Compound 182, N-[(6-amino-2-pyridyl)sulfonyl]-8,8-dimethyl-2-(2,4,6-trimethylphenoxy)-6,7-dihydro-5H-quinoline-3-carboxamide]
	< 3000 nM	COc1cccc(-c2ccc(C(=O)NS(=O)(=O)c3cccnc3N)c(N3C[C@@H](C)CC3(C)C)n2)c1OC [Compound 2436, N-[(2-amino-3-pyridyl)sulfonyl]-6-(2,3-dimethoxyphenyl)-2-[(4S)-2,2,4-trimethylpyrrolidin-1-yl]pyridine-3-carboxamide]
+++ (“+++” means <3 uM)		Cc1c(Cn2nc(C(C)(C)C)cc2C(=O)NS(=O)(=O)c2ccccc2)cccc1C(F)(F)F [Compound 98, N-(benzenesulfonyl)-5-tert-butyl-2-[[2-methyl-3-(trifluoromethyl)phenyl]methyl]pyrazole-3-carboxamide]
	< 3000 nM	CCOc1ccc(F)c(-c2ccc(C(=O)NS(=O)(=O)c3cccnc3N)c(N3C[C@@H](C)CC3(C)C)n2)c1 [Compound 2149, N-[(2-amino-3-pyridyl)sulfonyl]-6-(5-ethoxy-2-fluoro-phenyl)-2-[(4S)-2,2,4-trimethylpyrrolidin-1-yl]pyridine-3-carboxamide]
	3000 to 10000 nM	CC1CN(c2ncc(-c3ccccc3C#N)cc2C(=O)NS(=O)(=O)c2cccc(N)n2)C(C)(C)C1 (stereo not drawn) [Compound 2584, N-[(6-amino-2-pyridyl)sulfonyl]-5-(2-cyanophenyl)-2-(2,2,4-trimethylpyrrolidin-1-yl)pyridine-3-carboxamide]
++ (“++” means between 3 uM and 10 uM)		CCCOc1ccc(F)c(-c2ccc(C(=O)NS(=O)(=O)c3ccc[nH]c3=O)c(Oc3c(C)cc(C)cc3C)n2)c1 [Compound 552, 6-(2-fluoro-5-propoxy-phenyl)-N-[(2-oxo-1H-pyridin-3-yl)sulfonyl]-2-(2,4,6-trimethylphenoxy)pyridine-3-carboxamide]
	< 3000 nM	Cc1cc(F)cc(-c2ccc(C(=O)NS(=O)(=O)c3ccc[nH]c3=O)c(N3C[C@@H](C)CC3(C)C)n2)c1 [Compound 2348, 6-(3-fluoro-5-methyl-phenyl)-N-[(2-oxo-1H-pyridin-3-yl)sulfonyl]-2-[(4S)-2,2,4-trimethylpyrrolidin-1-yl]pyridine-3-carboxamide]
+++ (“+++” means <3 uM)		Cc1cc(C)c(Cn2c(C(=O)NS(=O)(=O)c3ccccc3)cc3ccc(F)cc32)c(C)c1 [Compound 212, N-(benzenesulfonyl)-6-fluoro-1-[(2,4,6-trimethylphenyl)methyl]indole-2-carboxamide]
	< 3000 nM	CC1CN(c2ncccc2C(=O)NS(=O)(=O)c2cccc(NC(C)c3cccc4ccccc34)n2)C(C)(C)C1 (stereo not drawn) [Compound 2049, N—[[6-[1-(1-naphthyl)ethylamino]-2-pyridyl]sulfonyl]-2-(2,2,4-trimethylpyrrolidin-1-yl)pyridine-3-carboxamide]
+++ (“+++” means <3 uM)		Cc1cccc(C)c1Cn1nc(-c2ccc(F)cc2)cc1C(=O)NS(=O)(=O)c1ccccc1 [Compound 333, N-(benzenesulfonyl)-2-[(2,6-dimethylphenyl)methyl]-5-(4-fluorophenyl)pyrazole-3-carboxamide]
+++ (“+++” means <3 uM)		COc1ccccc1S(=O)(=O)NC(=O)c1ccc(C(C)(C)C)nc1Oc1c(C)cc(C)cc1C [Compound 115, 6-tert-butyl-N-(2-methoxyphenyl)sulfonyl-2-(2,4,6-trimethylphenoxy)pyridine-3-carboxamide]
+++ (“+++” means <3 uM)		CC(C)Oc1ccc(-c2ccc(C(=O)NS(=O)(=O)c3cccc(N)n3)c(N3CCCC(CC(F)(F)F)C3)n2)cn1 (stereo not drawn) [Compound 656, N-[(6-amino-2-pyridyl)sulfonyl]-6-(6-isopropoxy-3-pyridyl)-2-[3-(2,2,2-trifluoroethyl)-1-piperidyl]pyridine-3-carboxamide]
++ (“++” means between 3 uM and 10 uM)		Cc1cc(C)c(Oc2nc(-c3cc(F)ccc3F)ccc2C(=O)NS(=O)(=O)c2ccc[nH]c2=O)c(C)c1 [Compound 545, 6-(2,5-difluorophenyl)-N-[(2-oxo-1H-pyridin-3-yl)sulfonyl]-2-(2,4,6-trimethylphenoxy)pyridine-3-carboxamide]
	< 3000 nM	CCOc1ccc(F)cc1-c1ccc(C(=O)NS(=O)(=O)c2ccc[nH]c2=O)c(N2C[C@@H](C)CC2(C)C)n1 [Compound 2051, 6-(2-ethoxy-5-fluoro-phenyl)-N-[(2-oxo-1H-pyridin-3-yl)sulfonyl]-2-[(4S)-2,2,4-trimethylpyrrolidin-1-yl]pyridine-3-carboxamide]
++ (“++” means between 3 uM and 10 uM)		COc1cc(-c2ccc(C(=O)NS(=O)(=O)c3ccc[nH]c3=O)c(Oc3c(C)cc(C)cc3C)n2)ccc1F [Compound 624, 6-(4-fluoro-3-methoxy-phenyl)-N-[(2-oxo-1H-pyridin-3-yl)sulfonyl]-2-(2,4,6-trimethylphenoxy)pyridine-3-carboxamide]
++ (“++” means between 3 uM and 10 uM)		Cc1cc(C)c(-c2nc(C(C)(C)C)ccc2C(=O)NS(=O)(=O)c2cccc(N)c2)c(C)c1 [Compound 26, N-(3-aminophenyl)sulfonyl-6-tert-butyl-2-(2,4,6-trimethylphenyl)pyridine-3-carboxamide]
+++ (“+++” means <3 uM)		COCc1cccc(-c2ccc(C(=O)NS(=O)(=O)c3cccc(N)n3)c(Oc3c(C)cc(C)cc3C)n2)c1 [Compound 69, N-[(6-amino-2-pyridyl)sulfonyl]-6-[3-(methoxymethyl)phenyl]-2-(2,4,6-trimethylphenoxy)pyridine-3-carboxamide]
	3000 to 10000 nM	COc1ccc(-c2ccc(C(=O)NS(=O)(=O)c3ccc[nH]c3=O)c(N3C[C@@H](C)CC3(C)C)n2)cc1F [Compound 2219, 6-(3-fluoro-4-methoxy-phenyl)-N-[(2-oxo-1H-pyridin-3-yl)sulfonyl]-2-[(4S)-2,2,4-trimethylpyrrolidin-1-yl]pyridine-3-carboxamide]
+++ (“+++” means <3 uM)		CC(C)Cn1cc(-c2ccc(C(=O)NS(=O)(=O)c3cccc(N)n3)c(N3CC(C)CC3(C)C)n2)cn1 (stereo not drawn) [Compound 631, N-[(6-amino-2-pyridyl)sulfonyl]-6-(1-isobutylpyrazol-4-yl)-2-(2,2,4-trimethylpyrrolidin-1-yl)pyridine-3-carboxamide]
	< 3000 nM	COc1ccc(Nc2cccc(S(=O)(=O)NC(=O)c3cccnc3N3CC(C)CC3(C)C)n2)cc1Cl (stereo not drawn) [Compound 2571, N—[[6-(3-chloro-4-methoxy-anilino)-2-pyridyl]sulfonyl]-2-(2,24-trimethylpyrrolidin-1-yl)pyridine-3-carboxamide]
	< 3000 nM	COc1cccc(-c2ccc(C(=O)NS(=O)(=O)c3ccc[nH]c3=O)c(N3C[C@@H](C)CC3(C)C)n2)n1 [Compound 2101, 6-(6-methoxy-2-pyridyl)-N-[(2-oxo-1H-pyridin-3-yl)sulfonyl]-2-[(4S)-2,2,4-trimethylpyrrolidin-1-yl]pyridine-3-carboxamide]

SMILES	EC30 [1]	EC30 [2]
CC(C)COc1cc(F)cc(-c2ccc(C(=O)NS(=O)(=O)c3cccc(N)n3)c(N3CCC4CCCC43)n2)c1 (stereo not drawn) [Compound 383, 2-(3,3a,4,5,6,6a-hexahydro-2H-cyclopenta[b]pyrrol-1-yl)-N-[(6-amino-2-pyridyl)sulfonyl]-6-(3-fluoro-5-isobutoxy-phenyl)pyridine-3-carboxamide]	+++ (“+++” means <3 uM)	
CC(C)COc1cc(F)cc(-c2ccc(C(=O)NS(=O)(=O)c3cccc(N)n3)c(N3CCC(Cc4ccccc4)C3)n2)c1 (stereo not drawn) [Compound 473, N-[(6-amino-2-pyridyl)sulfonyl]-2-(3-benzylpyrrolidin-1-yl)-6-(3-fluoro-5-isobutoxy-phenyl)pyridine-3-carboxamide]	+++ (“+++” means <3 uM)	
Cc1cc(C(=O)NS(=O)(=O)c2cccc(N)n2)c(N2[C@H](C)CC[C@@H]2C)nc1-c1cc(F)cc(OCC(C)C)c1 [Compound 483, N-[(6-amino-2-pyridyl)sulfonyl]-2-[(2R,5S)-2,5-dimethylpyrrolidin-1-yl]-6-(3-fluoro-5-isobutoxy-phenyl)-5-methyl-pyridine-3-carboxamide]	+++ (“+++” means <3 uM)	
CC(C)COc1cc(F)cc(-c2ccc(C(=O)NS(=O)(=O)C3CCNC3)c(N3C[C@@H](C)CC3(C)C)n2)c1 (stereo partly drawn) [Compound 2042, 6-(3-fluoro-5-isobutoxy-phenyl)-N-pyrrolidin-3-ylsulfonyl-2-[(4S)-2,2,4-trimethylpyrrolidin-1-yl]pyridine-3-carboxamide]		< 3000 nM
CCC1CCN(c2nc(-c3cc(F)cc(OCC(C)C)c3)ccc2C(=O)NS(=O)(=O)c2cccc(N)n2)CC1 [Compound 615, N-[(6-amino-2-pyridyl)sulfonyl]-2-(4-ethyl-1-piperidyl)-6-(3-fluoro-5-isobutoxy-phenyl)pyridine-3-carboxamide]	+++ (“+++” means <3 uM)	
CC(C)COc1cc(F)cc(-c2ccc(C(=O)NS(=O)(=O)c3cccc(N)n3)c(N3CCCC34CCOC4)n2)c1 (stereo not drawn) [Compound 424, N-[(6-amino-2-pyridyl)sulfonyl]-6-(3-fluoro-5-isobutoxy-phenyl)-2-(8-oxa-4-azaspiro[4.4]nonan-4-yl)pyridine-3-carboxamide]	+++ (“+++” means <3 uM)	
CC1CN(c2ncccc2C(=O)NS(=O)(=O)c2cccc(OC3CCCCCC3)n2)C(C)(C)C1 (stereo not drawn) [Compound 2252, N—[[6-(cycloheptoxy)-2-pyridyl]sulfonyl]-2-(2,2,4-trimethylpyrrolidin-1-yl)pyridine-3-carboxamide]		< 3000 nM
